Laboratory results as given in patent US10004701B2, “Methods and compositions for treating infection” (UNIVERSITY OF ROCHESTER, priority 2012, dated 2018).
Where a name gives a salt, the structure may show the parent alone. Read-outs that look alike come from different tables or passages of the source.

Key:
Assay in all cases: AK assay 384-well format, Prestwick library screening
E. faecium = assay type: cell-based, Enterococcus faecium; conditions: 50 μM final drug concentration; for fold induction at 50 µM: Enterococcus faecium, 3 h
[1] = test system: S. aureus strain USA300-0114; assay type: cell-based, Staphylococcus aureus; conditions: 50 μM final drug concentration; for fold induction at 50 µM: Staphylococcus aureus, USA300, 3 h
K. pneumoniae = assay type: cell-based, Klebsiella pneumoniae; conditions: 50 μM final drug concentration; for fold induction at 50 µM: Klebsiella pneumoniae, 3 h
[2] = test system: A. baumannii strain 98-37-09; assay type: cell-based, Acinetobacter baumannii; conditions: 50 μM final drug concentration; for fold induction at 50 µM: Acinetobacter baumannii, 983709, 3 h
P. aeruginosa = assay type: cell-based, Pseudomonas aeruginosa; conditions: 50 μM final drug concentration; for fold induction at 50 µM: Pseudomonas aeruginosa, 3 h
E. cloacae = assay type: cell-based, Enterobacter cloacae; conditions: 50 μM final drug concentration; for fold induction at 50 µM: Enterobacter cloacae, 3 h
E. coli = assay type: cell-based, Escherichia coli; conditions: 50 μM final drug concentration; for fold induction at 50 µM: Escherichia coli, 3 h
[3] = planktonic E. faecium, 384-well, cutoff for positive-scoring molecules 3-fold increase, read-out: AK-based Prestwick Library Screening Results: E. faecium (increase in extracellular AK activity)
[4] = planktonic S. aureus, 384-well, cutoff for positive-scoring molecules 3-fold increase, read-out: AK-based Prestwick Library Screening Results: S. aureus (increase in extracellular AK activity)
[5] = planktonic K. pneumoniae, 384-well, cutoff for positive-scoring molecules 3-fold increase, read-out: AK-based Prestwick Library Screening Results: K. pneumoniae (increase in extracellular AK activity)
[6] = planktonic A. baumannii, 384-well, cutoff for positive-scoring molecules 3-fold increase, read-out: AK-based Prestwick Library Screening Results: A. baumannii (increase in extracellular AK activity)
[7] = planktonic P. aeruginosa, 384-well, cutoff for positive-scoring molecules 3-fold increase, read-out: AK-based Prestwick Library Screening Results: P. aeruginosa (increase in extracellular AK activity)
[8] = planktonic E. cloacae, 384-well, cutoff for positive-scoring molecules 3-fold increase, read-out: AK-based Prestwick Library Screening Results: E. cloacae (increase in extracellular AK activity)
[9] = planktonic E. coli, 384-well, cutoff for positive-scoring molecules 3-fold increase, read-out: AK-based Prestwick Library Screening Results: E. coli (increase in extracellular AK activity)
[10] = 384-well format, cutoff for positive-scoring molecules 3-fold increase
[11] = cutoff for positive-scoring molecules 3-fold increase, read-out: AK-based Prestwick Library Screening Results, E. faecium (fold increase in extracellular AK activity)
[12] = cutoff for positive-scoring molecules 3-fold increase, read-out: AK-based Prestwick Library Screening Results, S. aureus (fold increase in extracellular AK activity)
[13] = cutoff for positive-scoring molecules 3-fold increase, read-out: AK-based Prestwick Library Screening Results, K. pneumoniae (fold increase in extracellular AK activity)
[14] = cutoff for positive-scoring molecules 3-fold increase, read-out: AK-based Prestwick Library Screening Results, A. baumannii (fold increase in extracellular AK activity)
[15] = cutoff for positive-scoring molecules 3-fold increase, read-out: AK-based Prestwick Library Screening Results, P. aeruginosa (fold increase in extracellular AK activity)
[16] = cutoff for positive-scoring molecules 3-fold increase, read-out: AK-based Prestwick Library Screening Results, E. cloacae (fold increase in extracellular AK activity)
[17] = cutoff for positive-scoring molecules 3-fold increase, read-out: AK-based Prestwick Library Screening Results, E. coli (fold increase in extracellular AK activity)
[18] = planktonic, cutoff for positive 3-fold increase

## Cc1scc2c1N(C(=O)CN1CCN(C)CC1)c1ccccc1NC2=O [Telenzepine dihydrochloride]
E. faecium; [3]
  fold induction at 50 µM: 1.1
[1]; [4]
  fold induction at 50 µM: 1.3
K. pneumoniae; [5]
  fold induction at 50 µM: 1
[2]; [6]
  fold induction at 50 µM: 1.6
P. aeruginosa; [7]
  fold induction at 50 µM: 1.2
E. cloacae; [8]
  fold induction at 50 µM: 1.4
E. coli; [9]
  fold induction at 50 µM: 1.5

## Cc1cccc(Nc2ccccc2C(=O)O)c1C [Mefenamic acid]
E. faecium; [3]
  fold induction at 50 µM: 0.9
[1]; [4]
  fold induction at 50 µM: 0.7
K. pneumoniae; [5]
  fold induction at 50 µM: 0.8
[2]; [6]
  fold induction at 50 µM: 1.2
P. aeruginosa; [7]
  fold induction at 50 µM: 0.9
E. cloacae; [8]
  fold induction at 50 µM: 1.6
E. coli; [9]
  fold induction at 50 µM: 0.9

## Cl.N=C(N=C(N)N)N1CCOCC1 [Moroxidine hydrochloride]
E. faecium; [10]
  AK-based Prestwick Library Screening Results, E. faecium (increase in extracellular AK activity): 0.8
[1]; [10]
  AK-based Prestwick Library Screening Results, S. aureus (increase in extracellular AK activity): 0.4
K. pneumoniae; [10]
  AK-based Prestwick Library Screening Results, K. pneumoniae (increase in extracellular AK activity): 0.4
[2]; [10]
  AK-based Prestwick Library Screening Results, A. baumannii (increase in extracellular AK activity): 0.4
P. aeruginosa; [10]
  AK-based Prestwick Library Screening Results, P. aeruginosa (increase in extracellular AK activity): 0.3
E. cloacae; [10]
  AK-based Prestwick Library Screening Results, E. cloacae (increase in extracellular AK activity): 0.3
E. coli; [10]
  AK-based Prestwick Library Screening Results, E. coli (increase in extracellular AK activity): 0.5

## Cc1cccc(C)c1OCC(C)N (stereo not drawn) [Mexiletine hydrochloride]
E. faecium; 384-well format, cutoff for positive-scoring molecules 3-fold increase, read-out: AK-based Prestwick Library Screening Results, E. faecium (increase in extracellular AK activity)
  fold induction at 50 µM: 0.9
[1]; 384-well format, cutoff for positive-scoring molecules 3-fold increase, read-out: AK-based Prestwick Library Screening Results, S. aureus (increase in extracellular AK activity)
  fold induction at 50 µM: 0.7
K. pneumoniae; 384-well format, cutoff for positive-scoring molecules 3-fold increase, read-out: AK-based Prestwick Library Screening Results, K. pneumoniae (increase in extracellular AK activity)
  fold induction at 50 µM: 0.6
[2]; 384-well format, cutoff for positive-scoring molecules 3-fold increase, read-out: AK-based Prestwick Library Screening Results, A. baumannii (increase in extracellular AK activity)
  fold induction at 50 µM: 0.5
P. aeruginosa; 384-well format, cutoff for positive-scoring molecules 3-fold increase, read-out: AK-based Prestwick Library Screening Results, P. aeruginosa (increase in extracellular AK activity)
  fold induction at 50 µM: 0.7
E. cloacae; 384-well format, cutoff for positive-scoring molecules 3-fold increase, read-out: AK-based Prestwick Library Screening Results, E. cloacae (increase in extracellular AK activity)
  fold induction at 50 µM: 0.7
E. coli; 384-well format, cutoff for positive-scoring molecules 3-fold increase, read-out: AK-based Prestwick Library Screening Results, E. coli (increase in extracellular AK activity)
  fold induction at 50 µM: 0.6

## Nc1nc2ncc(CNc3ccc(C(=O)N[C@@H](CCC(=O)O)C(=O)O)cc3)nc2c(=O)[nH]1 [Folic acid]
E. faecium; planktonic, cutoff for positive 3-fold increase, read-out: AK-based Prestwick Library Screening Results, E. faecium (fold increase in extracellular AK activity)
  fold induction at 50 µM: 1.1
[1]; planktonic, cutoff for positive 3-fold increase, read-out: AK-based Prestwick Library Screening Results, S. aureus (fold increase in extracellular AK activity)
  fold induction at 50 µM: 1
K. pneumoniae; planktonic, cutoff for positive 3-fold increase, read-out: AK-based Prestwick Library Screening Results, K. pneumoniae (fold increase in extracellular AK activity)
  fold induction at 50 µM: 1
[2]; planktonic, cutoff for positive 3-fold increase, read-out: AK-based Prestwick Library Screening Results, A. baumannii (fold increase in extracellular AK activity)
  fold induction at 50 µM: 1.3
P. aeruginosa; planktonic, cutoff for positive 3-fold increase, read-out: AK-based Prestwick Library Screening Results, P. aeruginosa (fold increase in extracellular AK activity)
  fold induction at 50 µM: 1.1
E. cloacae; planktonic, cutoff for positive 3-fold increase, read-out: AK-based Prestwick Library Screening Results, E. cloacae (fold increase in extracellular AK activity)
  fold induction at 50 µM: 1.3
E. coli; planktonic, cutoff for positive 3-fold increase, read-out: AK-based Prestwick Library Screening Results, E. coli (fold increase in extracellular AK activity)
  fold induction at 50 µM: 1.3

## C[C@]12CCC(=O)C=C1C=C[C@@H]1[C@@H]2CC[C@@]2(C)[C@H]1CC[C@@]2(O)CCC(=O)O [Canrenoic acid potassium salt]
E. faecium; [3]
  fold induction at 50 µM: 1
[1]; [4]
  fold induction at 50 µM: 1.1
K. pneumoniae; [5]
  fold induction at 50 µM: 0.9
[2]; [6]
  fold induction at 50 µM: 1.5
P. aeruginosa; [7]
  fold induction at 50 µM: 1.3
E. cloacae; [8]
  fold induction at 50 µM: 1.2
E. coli; [9]
  fold induction at 50 µM: 1.4

## C=C1[C@H]2C[C@@]3([C@@H]1O)[C@@H](C[C@@H]2O)[C@]12[C@@H]4C[C@H]3[C@H]1N(CC)C[C@]4(C)CC[C@@H]2O [Napelline]
E. faecium; […]
  AK-based Prestwick Library Screening Results, E. faecium (fold increase in extracellular AK activity): 1.0
[1]; […]
  AK-based Prestwick Library Screening Results, S. aureus (fold increase in extracellular AK activity): 1.4
K. pneumoniae; […]
  AK-based Prestwick Library Screening Results, K. pneumoniae (fold increase in extracellular AK activity): 1.0
[2]; […]
  AK-based Prestwick Library Screening Results, A. baumannii (fold increase in extracellular AK activity): 1.0
P. aeruginosa; […]
  AK-based Prestwick Library Screening Results, P. aeruginosa (fold increase in extracellular AK activity): 1.1
E. cloacae; […]
  AK-based Prestwick Library Screening Results, E. cloacae (fold increase in extracellular AK activity): 3.6
E. coli; […]
  AK-based Prestwick Library Screening Results, E. coli (fold increase in extracellular AK activity): 1.3

## CCCCOc1ccc(OCCCN2CCOCC2)cc1 [Pramoxine hydrochloride]
E. faecium; [11]
  fold induction at 50 µM: 1
[1]; [12]
  fold induction at 50 µM: 1.3
K. pneumoniae; [13]
  fold induction at 50 µM: 1.1
[2]; [14]
  fold induction at 50 µM: 1.1
P. aeruginosa; [15]
  fold induction at 50 µM: 1.2
E. cloacae; [16]
  fold induction at 50 µM: 1.5
E. coli; [17]
  fold induction at 50 µM: 1.1

## Cc1c(NC(C)C)c(=O)n(-c2ccccc2)n1C.Cl [Isopyrin hydrochloride]
E. faecium; [18]
  AK-based Prestwick Library Screening Results, E. faecium (fold increase in extracellular AK activity): 0.8
[1]; [18]
  AK-based Prestwick Library Screening Results, S. aureus (fold increase in extracellular AK activity): 0.4
K. pneumoniae; [18]
  AK-based Prestwick Library Screening Results, K. pneumoniae (fold increase in extracellular AK activity): 0.4
[2]; [18]
  AK-based Prestwick Library Screening Results, A. baumannii (fold increase in extracellular AK activity): 0.3
P. aeruginosa; [18]
  AK-based Prestwick Library Screening Results, P. aeruginosa (fold increase in extracellular AK activity): 0.4
E. cloacae; [18]
  AK-based Prestwick Library Screening Results, E. cloacae (fold increase in extracellular AK activity): 0.3
E. coli; [18]
  AK-based Prestwick Library Screening Results, E. coli (fold increase in extracellular AK activity): 0.4

## O=C(NCC(O)CO)c1c(I)c(C(=O)NCC(O)CO)c(I)c(N(CCO)C(=O)CO)c1I (stereo not drawn) [Ioversol]
E. faecium; [11]
  fold induction at 50 µM: 1
[1]; [12]
  fold induction at 50 µM: 1.2
K. pneumoniae; [13]
  fold induction at 50 µM: 1.2
[2]; [14]
  fold induction at 50 µM: 1.3
P. aeruginosa; [15]
  fold induction at 50 µM: 1.2
E. cloacae; [16]
  fold induction at 50 µM: 1.4
E. coli; [17]
  fold induction at 50 µM: 1.2

## CCC(Cc1c(I)cc(I)c(N)c1I)C(=O)O (stereo not drawn) [Iopanoic acid]
E. faecium; [11]
  fold induction at 50 µM: 0.9
[1]; [12]
  fold induction at 50 µM: 0.4
K. pneumoniae; [13]
  fold induction at 50 µM: 0.6
[2]; [14]
  fold induction at 50 µM: 0.6
P. aeruginosa; [15]
  fold induction at 50 µM: 0.6
E. cloacae; [16]
  fold induction at 50 µM: 9.6
E. coli; [17]
  fold induction at 50 µM: 0.6

## C=C(C)[C@@H]1CC[C@]2(CO)CC[C@]3(C)[C@H](CC[C@@H]4[C@@]5(C)CC[C@H](O)C(C)(C)[C@@H]5CC[C@]43C)[C@@H]12 [Betulin]
E. faecium; planktonic E. faecium, positive cutoff 3-fold increase, read-out: AK-based Prestwick library screening result, E. faecium (fold increase in extracellular AK activity)
  fold induction at 50 µM: 0.9
[1]; planktonic S. aureus, positive cutoff 3-fold increase, read-out: AK-based Prestwick library screening result, S. aureus (fold increase in extracellular AK activity)
  fold induction at 50 µM: 0.3
K. pneumoniae; planktonic K. pneumoniae, positive cutoff 3-fold increase, read-out: AK-based Prestwick library screening result, K. pneumoniae (fold increase in extracellular AK activity)
  fold induction at 50 µM: 0.7
[2]; planktonic A. baumannii, positive cutoff 3-fold increase, read-out: AK-based Prestwick library screening result, A. baumannii (fold increase in extracellular AK activity)
  fold induction at 50 µM: 0.8
P. aeruginosa; planktonic P. aeruginosa, positive cutoff 3-fold increase, read-out: AK-based Prestwick library screening result, P. aeruginosa (fold increase in extracellular AK activity)
  fold induction at 50 µM: 0.7
E. cloacae; planktonic E. cloacae, positive cutoff 3-fold increase, read-out: AK-based Prestwick library screening result, E. cloacae (fold increase in extracellular AK activity)
  fold induction at 50 µM: 1.3
E. coli; planktonic E. coli, positive cutoff 3-fold increase, read-out: AK-based Prestwick library screening result, E. coli (fold increase in extracellular AK activity)
  fold induction at 50 µM: 0.8
